In patent US8735398B2 (Bristol-Myers Squibb Company, priority 2009, dated 2014) one finds EC50 data, which are given here for 25 compounds.

The subject of the first test is HCV 1b genotype. Kind of test: HCV replicon assay (HCV-neo replicon cells, wild-type). Conditions: Hepatitis C virus, HCV 1b genotype replicon; class symbol; read-out: EC50 Range against HCV 1b. Format: cell-based, Hepatitis C virus. A digest of the protocol: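 Inhibition was tested in replicon-bearing cells, both wild-type HCV-neo and lines with NS5A resistance substitutions, using the O'Boyle et al. 2005 replicon method or luciferase-reporter formats.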
Usually EC50 stands for the concentration at which the effect is half-maximal. On to `C[C@H](NC(=O)OCc1ccccc1)C(=O)Nc1ccc(-c2n[nH]c(=O)n2-c2ccc(NC(=O)[C@H](C)NC(=O)OCc3ccccc3)cc2)cc1` [OL-12, [(1,5-dihydro-5-oxo-4H-1,2,4-triazole-3,4-diyl)bis[4,1-phenyleneimino[(1S)-1-methyl-2-oxo-2,1-ethanediyl]]]bis-carbamic acid, bis(phenylmethyl) ester], for which the EC50 was 1000 to 10000 nM.
On the same count and under the same terms, in the case of `CN1CCN(C(C(=O)N2CCC[C@H]2C(=O)Nc2ccc(-c3cnc(-c4ccc(NC(=O)[C@@H]5CCCN5C(=O)C(c5ccccc5)N5CCN(C)CC5)cc4)o3)cc2)c2ccccc2)CC1` (stereo partly drawn) [Example D-8, (2S,2′S)-N,N′-(1,3-oxazole-2,5-diyldi-4,1-phenylene)bis(1-((4-methyl-1-piperazinyl)(phenyl)acetyl)-2-pyrrolidinecarboxamide)] it was 4.57 to 99 nM.
Still for that read-out and setting: as for `O=C(Cc1ccccc1)NC1(C(=O)Nc2ccc(-c3cnc(-c4ccc(NC(=O)C5(NC(=O)Cc6ccccc6)CC5)cc4)o3)cc2)CC1` [JG-18, N,N′-(1,3-oxazole-2,5-diyldi-4,1-phenylene)bis(1-((phenylacetyl)amino)cyclopropanecarboxamide)], the figure is 1000 to 10000 nM; as for `CC(=O)N1CCC[C@H]1C(=O)Nc1ccc(-c2nc(-c3ccc(NC(=O)[C@@H]4C=CCN4C(=O)Cc4ccccc4)cc3)cs2)cc1` [Example D-49, (2S)-N-[4-[2-[4-[[[(2S)-1-acetyl-2-pyrrolidinyl]carbonyl]amino]phenyl]-4-thiazolyl]phenyl]-2,5-dihydro-1-(phenylacetyl)-1H-pyrrole-2-carboxamide], 1000 to 10000 nM.
On the same count and under the same terms, as for `O=C(Nc1ccc(-c2cc(-c3ccc(NC(=O)[C@@H]4C=CCN4C(=O)CC4CCCC4)cc3)[nH]n2)cc1)[C@@H]1C=CCN1C(=O)CC1CCCC1` [OL-39, (2S,2′S)-N,N′-(1H-pyrazole-3,5-diyldi-4,1-phenylene)bis[1-(cyclopentylacetyl)-2,5-dihydro-1H-pyrrole-2-carboxamide]], the figure is 1000 to 10000 nM; as for `CC(C)(C)O[C@@H]1C[C@@H](C(=O)Nc2ccc(-c3cc(-c4ccc(NC(=O)[C@@H]5C[C@@H](OC(C)(C)C)CN5C(=O)OCc5ccccc5)cc4)[nH]n3)cc2)N(C(=O)OCc2ccccc2)C1` [OL-49, dibenzyl (2S,4R,2′S,4′R)-2,2′-(1H-pyrazole-3,5-diylbis(4,1-phenylenecarbamoyl))bis(4-tert-butoxy-1-pyrrolidinecarboxylate)], 100 to 999 nM.
For the compound `CC(=O)N1CCC[C@H]1C(=O)Nc1ccc(-c2nc(-c3ccc(NC(=O)[C@@H]4CCCN4C(=O)Cc4ccccc4)cc3)cs2)cc1` [Example D-45, (2S)-1-acetyl-N-(4-(4-(4-((((2S)-1-(phenylacetyl)-2-pyrrolidinyl)carbonyl)amino)phenyl)-1,3-thiazol-2-yl)phenyl)-2-pyrrolidinecarboxamide], the EC50 was in the range of 100 to 999 nM.
Same read-out and setting: as for `C[C@H](NC(=O)OCc1ccccc1)C(=O)Nc1ccc(-c2n[nH]nc2-c2ccc(NC(=O)[C@H](C)NC(=O)OCc3ccccc3)cc2)cc1` [OL-18, [(1S)-1-methyl-2-oxo-2-[[4-[4-[4-[[(2S)-1-oxo-2-[[(phenylmethoxy)carbonyl]amino]propyl]amino]phenyl]-1H-1,2,3-triazol-5-yl]phenyl]amino]ethyl]-carbamic acid, phenylmethyl ester], the figure is 4.57 to 99 nM.
On the same count and under the same terms, in the case of `C[C@H](NC(=O)[C@H](O)c1ccccc1)C(=O)Nc1ccc(-c2cc(-c3ccc(NC(=O)[C@@H](C)NC(=O)[C@H](O)c4ccccc4)cc3)[nH]n2)cc1` [OL-44, (S)-2-((R)-2-hydroxy-2-phenylacetamido)-N-(4-(5-(4-((R)-2-((R)-2-hydroxy-2-phenylacetamido)propanamido)phenyl)-1H-pyrazol-3-yl)phenyl)propanamide] it was under 4.57 nM.
In the case of `CC(=O)N1CCC[C@H]1C(=O)Nc1ccc(-c2ccc(-c3ccc(NC(=O)[C@@H]4CCCN4C(C)=O)cc3)o2)cc1` [JG-55, (2S,2′S)-N,N′-(2,5-furandiyldi-4,1-phenylene)bis(1-acetyl-2-pyrrolidinecarboxamide)], the EC50 was in the range of 100 to 999 nM.
The same measure, in the same setting: in the case of `CN(C)[C@@H](C(=O)N1CCC[C@H]1C(=O)Nc1ccc(-c2ccc(-c3ccc(NC(=O)[C@@H]4CCCN4C(=O)[C@@H](c4ccccc4)N(C)C)cc3)o2)cc1)c1ccccc1` [JG-63, (2S,2′S)-N,N′-(2,5-furandiyldi-4,1-phenylene)bis(1-((2R)-2-(dimethylamino)-2-phenylacetyl)-2-pyrrolidinecarboxamide)] it was under 4.57 nM.
Still for that read-out and setting: in the case of `O=C(Nc1ccc(-c2cnc(-c3ccc(NC(=O)[C@@H]4CCCN4C(=O)c4nc5ccccc5s4)cc3)o2)cc1)[C@@H]1CCCN1C(=O)c1nc2ccccc2s1` [JG-29, (2S,2′S)-N,N′-(1,3-oxazole-2,5-diyldi-4,1-phenylene)bis(1-(1,3-benzothiazol-2-ylcarbonyl)-2-pyrrolidinecarboxamide)] it was 100 to 999 nM; in that of `CO[C@@H](C(=O)N1CCC[C@H]1C(=O)Nc1ccc(-c2cnc(-c3ccc(NC(=O)[C@@H]4CCCN4C(=O)[C@H](OC)c4ccccc4)cc3)o2)cc1)c1ccccc1` [JG-25, (2S,2′S)-N,N′-(1,3-oxazole-2,5-diyldi-4,1-phenylene)bis(1-((2R)-2-methoxy-2-phenylacetyl)-2-pyrrolidinecarboxamide)], 4.57 to 99 nM.
On the same count and under the same terms, in the case of `C[C@](O)(C(=O)N1CCC[C@H]1C(=O)Nc1ccc(-c2nc[nH]c2-c2ccc(NC(=O)[C@@H]3CCCN3C(=O)[C@](C)(O)c3ccccc3)cc2)cc1)c1ccccc1` [JG-47, (2S,2′S)-N,N′-(1H-imidazole-4,5-diyldi-4,1-phenylene)bis(1-((2R)-2-hydroxy-2-phenylpropanoyl)-2-pyrrolidinecarboxamide)] it was 4.57 to 99 nM; in that of `CC(=O)N1CCC[C@H]1C(=O)Nc1ccc(-c2cc(-c3ccc(NC(=O)[C@@H]4CCCN4C(C)=O)cc3)n(C)n2)cc1` [FY-2, (2S,2′S)-N,N′-((1-methyl-1H-pyrazole-3,5-diyl)di-4,1-phenylene)bis(1-acetyl-2-pyrrolidinecarboxamide)], 1000 to 10000 nM; in that of `O=C(Nc1ccc(-c2nnc(-c3ccc(NC(=O)[C@@H]4CCCN4C(=O)CC4CC4)cc3)o2)cc1)[C@@H]1CCCN1C(=O)CC1CC1` [Example D-57, (2S,2′S)-N,N′-(1,3,4-oxadiazole-2,5-diyldi-4,1-phenylene)bis[1-(cyclopropylacetyl)-2-pyrrolidinecarboxamide]], 1000 to 10000 nM.
Consider `O=C(Nc1ccc(-c2cc(-c3ccc(NC(=O)[C@@H]4CCCN4C(=O)[C@@H](O)c4ccccc4)cc3)[nH]n2)cc1)[C@@H]1CCCN1C(=O)[C@@H](O)c1ccccc1` [JG-33, (2S,2′S)-N,N′-(1H-pyrazole-3,5-diyldi-4,1-phenylene)bis(1-((2S)-2-hydroxy-2-phenylacetyl)-2-pyrrolidinecarboxamide)], for which the EC50 lay within 4.57 to 99 nM.
As to `O=C(Nc1ccc(-c2cnc(-c3ccc(NC(=O)[C@@H]4CCCN4C(=O)C4CCCCN4CC4CCCCC4)cc3)o2)cc1)[C@@H]1CCCN1C(=O)C1CCCCN1CC1CCCCC1` (stereo partly drawn) [Example D-22, (2S,2′S)-N,N′-(1,3-oxazole-2,5-diyldi-4,1-phenylene)bis(1-((1-(cyclohexylmethyl)-2-piperidinyl)carbonyl)-2-pyrrolidinecarboxamide)], the EC50 was in the range of 100 to 999 nM.

Staying with this test, now noted: Hepatitis C virus, HCV 1b genotype replicon; class symbols; read-out: EC50 Range against HCV 1b.
Consider `O=C(Nc1ccc(-c2cnc(-c3ccc(NC(=O)[C@@H]4CCCN4C(=O)C(O)Cc4c[nH]c5ccccc45)cc3)o2)cc1)[C@@H]1CCCN1C(=O)C(O)Cc1c[nH]c2ccccc12` (stereo partly drawn) [JR-5, (2S,2′S)-N,N′-(2,5-oxazolediyldi-4,1-phenylene)bis[1-[2-hydroxy-3-(1H-indol-3-yl)-1-oxopropyl]-2-pyrrolidinecarboxamide]], for which the EC50 is 100 to 999 nM.
Same read-out and setting: as for `O=C(Nc1ccc(-c2cnc(-c3ccc(NC(=O)[C@@H]4CCCN4C(=O)c4ccccc4F)cc3)o2)cc1)[C@@H]1CCCN1C(=O)c1ccccc1F` [XY-10, (2S,2′S)-N,N′-(1,3-oxazole-2,5-diyldi-4,1-phenylene)bis(1-(2-fluorobenzoyl)-2-pyrrolidinecarboxamide)], the figure is 100 to 999 nM; as for `COc1cc(C(=O)N[C@@H](C)C(=O)Nc2ccc(-c3nnc(-c4ccc(NC(=O)[C@H](C)NC(=O)c5cc(Cl)nc(OC)c5)cc4)o3)cc2)cc(Cl)n1` [RK-41, N,N′-(1,3,4-oxadiazole-2,5-diylbis(4,1-phenyleneimino((2S)-1-oxo-1,2-propanediyl)))bis(2-chloro-6-methoxyisonicotinamide)], 1000 to 10000 nM; as for `O=C(Nc1ccc(-c2cnc(-c3ccc(NC(=O)[C@@H]4CCCN4C(=O)CN4C(=O)OC(c5ccccc5)C4=O)cc3)o2)cc1)[C@@H]1CCCN1C(=O)CN1C(=O)OC(c2ccccc2)C1=O` (stereo partly drawn) [JR-22, (2S,2′S)-N,N′-(2,5-oxazolediyldi-4,1-phenylene)bis[1-[(2,4-dioxo-5-phenyl-3-oxazolidinyl)acetyl]-2-pyrrolidinecarboxamide]], 1000 to 10000 nM.
On the same count and under the same terms, in the case of `Cn1cccc1CC(=O)N1CCC[C@H]1C(=O)Nc1ccc(-c2cnc(-c3ccc(NC(=O)[C@@H]4CCCN4C(=O)Cc4cccn4C)cc3)o2)cc1` [XY-40, (2S,2′S)-N,N′-(1,3-oxazole-2,5-diyldi-4,1-phenylene)bis(1-((1-methyl-1H-pyrrol-2-yl)acetyl)-2-pyrrolidinecarboxamide)] it was 100 to 999 nM; in that of `N#CC1(C(=O)N2CCC[C@H]2C(=O)Nc2ccc(-c3cnc(-c4ccc(NC(=O)[C@@H]5CCCN5C(=O)C5(C#N)CC5)cc4)o3)cc2)CC1` [XY-2, (2S,2′S)-N,N′-(1,3-oxazole-2,5-diyldi-4,1-phenylene)bis(1-((1-cyanocyclopropyl)carbonyl)-2-pyrrolidinecarboxamide)], 100 to 999 nM; in that of `CC1CC1C(=O)N1CCC[C@H]1C(=O)Nc1ccc(-c2cnc(-c3ccc(NC(=O)[C@@H]4CCCN4C(=O)C4CC4C)cc3)o2)cc1` (stereo partly drawn) [XY-16, (2S,2′S)-N,N′-(1,3-oxazole-2,5-diyldi-4,1-phenylene)bis(1-((2-methylcyclopropyl)carbonyl)-2-pyrrolidinecarboxamide)], 100 to 999 nM.

The test is the same for the next values; noted with them: Hepatitis C virus, HCV 1b genotype replicon; read-out: EC50 1b.
With `CC(C)(C)O[C@@H]1C[C@@H](C(=O)Nc2ccc(-c3cc(-c4ccc(NC(=O)[C@@H]5C[C@@H](OC(C)(C)C)CN5C(=O)OCc5ccccc5)cc4)[nH]n3)cc2)N(C(=O)OCc2ccccc2)C1` [OL-49, dibenzyl (2S,4R,2′S,4′R)-2,2′-(1H-pyrazole-3,5-diylbis(4,1-phenylenecarbamoyl))bis(4-tert-butoxy-1-pyrrolidinecarboxylate)], the 50% effective concentration (EC50) stood at 230 nM.
Same read-out and setting: as for `C[C@H](NC(=O)OCc1ccccc1)C(=O)Nc1ccc(-c2n[nH]nc2-c2ccc(NC(=O)[C@H](C)NC(=O)OCc3ccccc3)cc2)cc1` [OL-18, [(1S)-1-methyl-2-oxo-2-[[4-[4-[4-[[(2S)-1-oxo-2-[[(phenylmethoxy)carbonyl]amino]propyl]amino]phenyl]-1H-1,2,3-triazol-5-yl]phenyl]amino]ethyl]-carbamic acid, phenylmethyl ester], the figure is 92 nM.
On the same count and under the same terms, in the case of `O=C(Nc1ccc(-c2cnc(-c3ccc(NC(=O)[C@@H]4CCCN4C(=O)CN4C(=O)OC(c5ccccc5)C4=O)cc3)o2)cc1)[C@@H]1CCCN1C(=O)CN1C(=O)OC(c2ccccc2)C1=O` (stereo partly drawn) [JR-22, (2S,2′S)-N,N′-(2,5-oxazolediyldi-4,1-phenylene)bis[1-[(2,4-dioxo-5-phenyl-3-oxazolidinyl)acetyl]-2-pyrrolidinecarboxamide]] it was 1720 nM; in that of `O=C(Nc1ccc(-c2nnc(-c3ccc(NC(=O)[C@@H]4CCCN4C(=O)CC4CC4)cc3)o2)cc1)[C@@H]1CCCN1C(=O)CC1CC1` [Example D-57, (2S,2′S)-N,N′-(1,3,4-oxadiazole-2,5-diyldi-4,1-phenylene)bis[1-(cyclopropylacetyl)-2-pyrrolidinecarboxamide]], 1950 nM.
